Experimental findings from US7456165B2, “HCV NS5B inhibitors” (Bristol-Myers Squibb Company, priority 2006, dated 2008) are described below.

One assay has as its target T1, HCV NS5B (Hepatitis C virus genotype 1b, UniProt Q9WMX2).
T1 construct: The protein was expressed with an 18 amino acid C-terminal truncation to enhance the solubility; made in house; host or cells: E. coli BL21(DE3)
Put plainly: HCV NS5B RdRp enzyme assay (preincubation protocol). It is filed as biochemical. Conditions: HCV NS5B RdRp genotype 1b. The method, then: HCV NS5B RdRp cloning, expression, and purification. The cDNA encoding the NS5B protein of HCV, genotype 1b, was cloned into the pET21a expression vector. The protein was expressed with an 18 amino acid C-terminal truncation to enhance the solubility. The E. coli competent cell line BL21(DE3) was used for expression of the protein. Cultures were grown at 37° C. for ˜4 hours until the cultures reached an optical density of 2.0 at 600 nm. The cultures were cooled to 20° C. and induced with 1 mM IPTG. Fresh ampicillin was added to a final concentration of 50 μg/ml and the cells were grown overnight at 20° C.
Cell pellets (3 L) were lysed for purification to yield 15-24 mgs of purified NS5B. The lysis buffer consisted of 20 mM Tris-HCl, pH 7.4, 500 mM NaCl, 0.5% triton X-100, 1 mM DTT, 1 mM EDTA, 20% glycerol, 0.5 mg/ml lysozyme, 10 mM MgCl2, 15 ug/ml deoxyribonuclease I, and Complete TM protease inhibitor tablets (Roche). After addition of the lysis buffer, frozen cell pellets were resuspended using a tissue homogenizer. To reduce the viscosity of the sample, aliquots of the lysate were sonicated on ice using a microtip attached to a Branson sonicator. The sonicated lysate was centrifuged at 100,000×g for 1 hr at 4° C. and filtered through a 0.2 μm filter unit (Corning).
The protein was purified using three sequential chromatography steps: Heparin sepharose CL-6B, polyU sepharose 4B, and Hitrap SP sepharose (Pharmacia). The chromatography buffers were identical to the lysis buffer but contained no lysozyme, deoxyribonuclease I, MgCl2 or protease inhibitor and the NaCl concentration of the buffer was adjusted according to the requirements for charging the protein onto the column. Each column was eluted with a NaCl gradient which varied in length from 5-50 column volumes depending on the column type. After the final chromatography step, the resulting purity of the enzyme is >90% based on SDS-PAGE analysis. The enzyme was aliquoted and stored at −80° C.
Standard HCV NS5B RdRp enzyme assay. HCV RdRp genotype 1b assays were run in a final volume of 60 μl in 96 well plates (Costar 3912 H. The assay buffer is composed of 20 mM Hepes, pH 7.5, 2.5 mM KCl, 2.5 mM MgCl2, 1 mM DTT, 1.6 U RNAse inhibitor (Promega N2515), 0.1 mg/ml BSA (Promega R3961), and 2% glycerol. All compounds were serially diluted (3-fold) in DMSO and diluted further in water such that the final concentration of DMSO in the assay was 2%. HCV RdRp genotype 1b enzyme was used at a final concentration of 28 nM. A polyA template was used at 6 nM, and a biotinylated oligo-dT12 primer was used at 180 nM final concentration. Template was obtained commercially (Amersham 27-4110). Biotinylated primer was prepared by Sigma Genosys. 3H-UTP was used at 0.6 μCi (0.29 μM total UTP). Reactions were initiated by the addition of enzyme, incubated at 30° C. for 60 min, and stopped by adding 25 μl of 50 mM EDTA containing SPA beads (4 μg/μl, Amersham RPNQ 0007 H. Plates were read on a Packard Top Count NXT after >1 hr incubation at room temperature.
Modified HCV NS5B RdRp enzyme assay. A modified enzyme assay was performed essentially as described for the standard enzyme assay except for the following: The biotinylated oligo dT12 primer was precaptured on streptavidin-coated SPA beads by mixing primer and beads in assay buffer and incubating at room temperature for one hour. Unbound primer was removed after centrifugation. The primer-bound beads were resuspended in 20 mM Hepes buffer, pH 7.5 and used in the assay at final concentrations of 20 nM primer and 0.67 μg/μl beads. Order of addition in the assay: enzyme (14 nM) was added to diluted compound followed by the addition of a mixture of template (0.2 nM), 3H-UTP (0.6 μCi, 0.29 μM), and primer-bound beads, to initiate the reaction; concentrations given are final. Reactions were allowed to proceed for 4 hours at 30° C.
IC50 values for compounds were determined using seven different [I]. […]

A further assay deals with HCV replicon cells. Put plainly: HCV replicon FRET assay. It is filed as cell-based. The text has this: FRET Assay Preparation. To perform the HCV FRET screening assay, 96-well cell culture plates were used. The FRET peptide (Anaspec, Inc.) (Taliani et al., Anal Biochem. 1996, 240, 60-67) contains a fluorescence donor, EDANS, near one end of the peptide and an acceptor, DABCYL, near the other end. The fluorescence of the peptide is quenched by […] resonance energy transfer (RET) between the donor and the acceptor, but as the NS3 protease cleaves the peptide the products are released from RET quenching and the fluorescence of the donor becomes apparent. The assay reagent was made as follows: 5× cell Luciferase cell culture lysis reagent from Promega (#E153A) diluted to 1× with dH2O, NaCl added to 150 mM final, the FRET peptide diluted to 20 μM final from a 2 mM stock.
To prepare plates, HCV replicon cells, with or without a Renilla luciferase reporter gene, were trypsinized and placed into each well of a 96-well plate with titrated test compounds added in columns 3 through 12; columns 1 and 2 contained a control compound (HCV protease inhibitor), and the bottom row contained cells without compound. The plates were then placed in a CO2 incubator at 37° C.
Assays. Subsequent to addition of the test compounds described above (FRET Assay Preparation), at various times the plate was removed and Alamar blue solution (Trek Diagnostics, #00-100) was added per well as a measure of cellular toxicity. After reading in a Cytoflour 4000 instrument (PE Biosystems), plates were rinsed with PBS and then used for FRET assay by the addition of 30 ul of the FRET peptide assay reagent described above (FRET Assay Preparation) per well. The plate was then placed into the Cytoflour 4000 instrument which had been set to 340 excite/490 emission, automatic mode for 20 cycles and the plate read in a kinetic mode. Typically, the signal to noise using an endpoint analysis after the reads was at least three-fold. Alternatively, after Alamar blue reading, plates were rinsed with PBS, 50 ul of DMEM (high glucose) without phenol red was added and plates were then used for luciferase assay using the Promega Dual-Glo Luciferase Assay System.
Compound analysis was determined by quantification of the relative HCV replicon inhibition and the relative cytotoxicity values. To calculate cytoxicity values, the average Alamar Blue fluorescence signals from the control wells were set as 100% non-toxic. The individual signals in each of the compound test wells were then divided by the average control signal and multiplied by 100% to determine […]. To calculate the HCV replicon inhibition values, an average background value was obtained from the two wells containing the highest amount of HCV protease inhibitor at the end of the assay period. These numbers were similar to those obtained from naïve Huh-7 cells.
The background numbers were then subtracted from the average signal obtained from the control wells and this number was used as 100% activity. The individual signals in each of the compound test wells were then divided by the averaged control values after background subtraction and multiplied by 100% to determine percent activity. EC50 values for a protease inhibitor titration were calculated as the concentration which caused a 50% reduction in FRET or luciferase activity. The two numbers generated for the compound plate, percent cytoxicity and percent activity were used to determine compounds of interest for further analysis.

Read-outs that look alike come from different tables or passages of the source.

T1 sequence (Q9WMX2 2420-2992): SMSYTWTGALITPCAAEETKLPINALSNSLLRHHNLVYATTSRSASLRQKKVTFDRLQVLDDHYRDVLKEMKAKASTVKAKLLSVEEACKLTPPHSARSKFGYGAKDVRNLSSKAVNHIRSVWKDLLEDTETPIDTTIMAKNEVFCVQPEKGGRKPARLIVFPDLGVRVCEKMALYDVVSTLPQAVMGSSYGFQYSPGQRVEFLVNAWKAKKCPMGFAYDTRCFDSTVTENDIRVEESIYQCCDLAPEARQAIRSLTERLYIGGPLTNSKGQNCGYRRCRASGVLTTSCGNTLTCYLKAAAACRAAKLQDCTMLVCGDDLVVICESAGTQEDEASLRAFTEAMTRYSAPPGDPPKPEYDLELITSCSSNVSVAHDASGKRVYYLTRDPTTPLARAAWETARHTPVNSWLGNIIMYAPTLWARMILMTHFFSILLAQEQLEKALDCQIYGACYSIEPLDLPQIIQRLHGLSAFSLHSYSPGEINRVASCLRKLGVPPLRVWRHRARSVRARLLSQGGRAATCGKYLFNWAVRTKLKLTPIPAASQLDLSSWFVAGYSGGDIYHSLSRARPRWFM

For `COc1ccc2c(c1)CC(c1ncc(CCC(=O)N3CCOCC3)o1)Cn1c-2c(C2CCCCC2)c2ccc(C(=O)O)cc21` (single isomer, unassigned) [Example 51, 13-Cyclohexyl-3-methoxy-6-(5-(3-(4-morpholinyl)-3-oxopropyl)-1,3-oxazol-2-yl)-6,7-dihydro-5H-indolo[2,1-a][2]benzazepine-10-carboxylic acid], the IC50 (commonly the concentration needed to halve the response being measured) against HCV NS5B was in the range of 1 to 500 nM. In the assay on HCV replicon cells, the concentration for a half-maximal effect (EC50) (in general, the concentration at which the effect is half-maximal) is above 500 nM.
`Nc1nnc(C2=Cc3ccccc3-c3c(C4CCCCC4)c4ccc(C(=O)O)cc4n3C2)o1` [Example 30, 6-(5-amino-1,3,4-oxadiazol-2-yl)-13-cyclohexyl-7H-indolo[2,1-a][2]benzazepine-10-carboxylic acid] yielded an IC50 at HCV NS5B above 500 nM. The same compound yielded an EC50 with HCV replicon cells (Hepatitis C virus) above 500 nM.
For the compound `O=C(O)c1ccc2c(C3CCCCC3)c3n(c2c1)CC(c1ncc(CCC(=O)N2CCOCC2)o1)=Cc1ccccc1-3` [Example 36, 13-cyclohexyl-6-[5-[3-(4-morpholinyl)-3-oxopropyl]-2-oxazolyl]-7H-indolo[2,1-a][2]benzazepine-10-carboxylic acid], the concentration for half-maximal inhibition (IC50) on HCV NS5B was in the range of 1 to 500 nM. The compound further registered an EC50 in the assay with HCV replicon cells (Hepatitis C virus) above 500 nM.
In the case of `Cc1noc(C2=Cc3ccccc3-c3c(C4CCCCC4)c4ccc(C(=O)O)cc4n3C2)n1` [Example 24, 13-cyclohexyl-6-(3-methyl-1,2,4-oxadiazol-5-yl)-7H-indolo[2,1-a][2]benzazepine-10-carboxylic acid], the IC50 on HCV NS5B lay in the range of 1 to 500 nM. The concentration giving a half-maximal response (EC50) in the assay on HCV replicon cells (Hepatitis C virus) was above 500 nM.
The like results for `COC(=O)c1ccc2c(C3CCCCC3)c3n(c2c1)CC(c1nc(CS(C)(=O)=O)no1)=Cc1ccccc1-3` [Example 26, 13-cyclohexyl-6-[3-[(methylsulfonyl)methyl]-1,2,4-oxadiazol-5-yl-]7H-indolo[2,1-a][2]benzazepine-10-carboxylic acid, methyl ester] were, in that order, above 500 nM and above 500 nM.
The corresponding values for `O=C(CN1CCOCC1)Nc1nnc(C2=Cc3ccccc3-c3c(C4CCCCC4)c4ccc(C(=O)O)cc4n3C2)o1` [Example 33, 13-cyclohexyl-6-[5-[(4-morpholinylacetyl)amino]-1,3,4-oxadiazol-2-yl]-7H-indolo[2,1-a][2]benzazepine-10-carboxylic acid] are 1 to 500 nM and above 500 nM.
Consider `Cc1noc(C2=Cc3ccccc3-c3c(C4CCCCC4)c4ccc(C(=O)NS(=O)(=O)N(C)C)cc4n3C2)n1` [Example 25, 13-cyclohexyl-N-[(dimethylamino)sulfonyl]-6-(3-methyl-1,2,4-oxadiazol-5-yl)-7H-indolo[2,1-a][2]benzazepine-10-carboxamide], for which, on HCV NS5B, the IC50 lay in the range of 1 to 500 nM. This compound also registered an EC50 in the assay on HCV replicon cells (Hepatitis C virus) of 1 to 500 nM.
For the compound `Cn1nc(C2=Cc3ccccc3-c3c(C4CCCCC4)c4ccc(C(=O)O)cc4n3C2)nc1CC1CCOCC1` [Example 42, 13-cyclohexyl-6-[1-methyl-5-[(tetrahydro-2H-pyran-4-yl)methyl]-1H-1,2,4-triazol-3-yl]-7H-indolo[2,1-a][2]benzazepine-10-carboxylic acid], the IC50 against HCV NS5B is above 500 nM. For the same compound, the EC50 with HCV replicon cells (Hepatitis C virus) is above 500 nM.
Consider `O=C(O)c1ccc2c(C3CCCCC3)c3n(c2c1)C=C(c1nnnn1CC1CCOCC1)Cc1ccccc1-3` [Example 14, 13-cyclohexyl6-[1-[(tetrahydro-2H-pyran-4-yl)methyl]-1H-tetrazol-5-yl]-5H-indolo[2,1-a][2]benzazepine-10-carboxylic acid], for which, on HCV NS5B, the IC50 is above 500 nM. This compound also gave an EC50 with HCV replicon cells (Hepatitis C virus) above 500 nM.
Take `COc1ccc2c(c1)C=C(c1nnn(CC3CCOCC3)n1)Cn1c-2c(C2CCCCC2)c2ccc(C(=O)NS(=O)(=O)N(C)C)cc21` [Example 17, 13-cyclohexyl-N-[(dimethylamino)sulfonyl]-3-methoxy-6-[2-[(tetrahydro-2H-pyran-4-yl)methyl]-2H-tetrazol-5-yl]-7H-indolo[2,1-a][2]benzazepine-10-carboxamide]: the IC50 against HCV NS5B was in the range of 1 to 500 nM. This compound also registered a concentration for a half-maximal effect (EC50) with HCV replicon cells (Hepatitis C virus) of 1 to 500 nM.
On to `CS(=O)(=O)Cc1noc(C2=Cc3ccccc3-c3c(C4CCCCC4)c4ccc(C(=O)O)cc4n3C2)n1` [Example 27, 13-cyclohexyl-6-[3-[(methylsulfonyl)methyl]-1,2,4-oxadiazol-5-yl]-7H-indolo[2,1-a][2]benzazepine-10-carboxylic acid], for which, at HCV NS5B, the IC50 is 1 to 500 nM. For the same compound, the EC50 with HCV replicon cells (Hepatitis C virus) was above 500 nM.
On to `COC(=O)c1ccc2c(C3CCCCC3)c3n(c2c1)CC(c1n[nH]c(CC2CCOCC2)n1)=Cc1ccccc1-3` [Example 40, 13-cyclohexyl-6-[5-[(tetrahydro-2H-pyran-4-yl)methyl]-1H-1,2,4-triazol-3-yl]-7H-indolo[2,1-a][2]benzazepine-10-carboxylic acid, methyl ester], for which, on HCV NS5B, the IC50 was above 500 nM. Moreover, in the assay with HCV replicon cells (Hepatitis C virus), the concentration giving a half-maximal response (EC50) was above 500 nM.
At HCV NS5B, `COc1ccc2c(c1)CC(c1ncc(CCC(=O)N3CCOCC3)o1)Cn1c-2c(C2CCCCC2)c2ccc(C(=O)NS(=O)(=O)N(C)C)cc21` (single isomer, unassigned) [Example 53, 13-Cyclohexyl-N-((dimethylamino)sulfonyl)-3-methoxy-6-(5-(3-(4-morpholinyl)-3-oxopropyl)-1,3-oxazol-2-yl)-6,7-dihydro-5H-indolo[2,1-a][2]benzazepine-10-carboxamide] yielded an IC50 of 1 to 500 nM. In the assay on HCV replicon cells (Hepatitis C virus), this compound had an EC50 of 1 to 500 nM.
